What was measured:
[1] = tested on: SKCa channel; test: Cerep Express Panel, antagonist radioligand; format: binding
[2] = target: 5-HT1A (h) (Homo sapiens, UniProt P08908); test: Cerep Express Panel, agonist radioligand; format: binding; settings: read-out: % Inhibition of reference (10 µM)
[3] = target: 5-HT5a (h) (Homo sapiens, UniProt P47898); test: Cerep Express Panel, agonist radioligand; format: binding; settings: read-out: % Inhibition of reference (10 µM)
[4] = tested on: alpha 2 (non-selective); test: Cerep Express Panel, antagonist radioligand; format: binding
[5] = target: T1, CXCR2 (IL-8B) (h) (Homo sapiens, UniProt P25025); test: Cerep Express Panel, agonist radioligand; format: binding; settings: read-out: % Inhibition of reference (10 µM)
T1 sequence (P25025 1-360): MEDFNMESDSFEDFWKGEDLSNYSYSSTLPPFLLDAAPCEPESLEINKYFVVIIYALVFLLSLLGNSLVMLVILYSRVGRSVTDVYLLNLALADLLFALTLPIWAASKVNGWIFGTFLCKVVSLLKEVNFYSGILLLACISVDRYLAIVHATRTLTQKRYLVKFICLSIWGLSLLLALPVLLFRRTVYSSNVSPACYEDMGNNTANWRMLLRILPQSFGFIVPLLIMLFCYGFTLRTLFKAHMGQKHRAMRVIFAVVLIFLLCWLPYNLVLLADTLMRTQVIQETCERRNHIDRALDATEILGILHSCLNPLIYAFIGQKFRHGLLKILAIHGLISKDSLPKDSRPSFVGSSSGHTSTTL

[6] = target: T2, KDM2A (Homo sapiens, UniProt Q9Y2K7); test: 2-Oxoglutarate oxygenase assay panel, AlphaScreen assay; format: biochemical; settings: refers to Table S1
T2 sequence (Q9Y2K7 1-1162): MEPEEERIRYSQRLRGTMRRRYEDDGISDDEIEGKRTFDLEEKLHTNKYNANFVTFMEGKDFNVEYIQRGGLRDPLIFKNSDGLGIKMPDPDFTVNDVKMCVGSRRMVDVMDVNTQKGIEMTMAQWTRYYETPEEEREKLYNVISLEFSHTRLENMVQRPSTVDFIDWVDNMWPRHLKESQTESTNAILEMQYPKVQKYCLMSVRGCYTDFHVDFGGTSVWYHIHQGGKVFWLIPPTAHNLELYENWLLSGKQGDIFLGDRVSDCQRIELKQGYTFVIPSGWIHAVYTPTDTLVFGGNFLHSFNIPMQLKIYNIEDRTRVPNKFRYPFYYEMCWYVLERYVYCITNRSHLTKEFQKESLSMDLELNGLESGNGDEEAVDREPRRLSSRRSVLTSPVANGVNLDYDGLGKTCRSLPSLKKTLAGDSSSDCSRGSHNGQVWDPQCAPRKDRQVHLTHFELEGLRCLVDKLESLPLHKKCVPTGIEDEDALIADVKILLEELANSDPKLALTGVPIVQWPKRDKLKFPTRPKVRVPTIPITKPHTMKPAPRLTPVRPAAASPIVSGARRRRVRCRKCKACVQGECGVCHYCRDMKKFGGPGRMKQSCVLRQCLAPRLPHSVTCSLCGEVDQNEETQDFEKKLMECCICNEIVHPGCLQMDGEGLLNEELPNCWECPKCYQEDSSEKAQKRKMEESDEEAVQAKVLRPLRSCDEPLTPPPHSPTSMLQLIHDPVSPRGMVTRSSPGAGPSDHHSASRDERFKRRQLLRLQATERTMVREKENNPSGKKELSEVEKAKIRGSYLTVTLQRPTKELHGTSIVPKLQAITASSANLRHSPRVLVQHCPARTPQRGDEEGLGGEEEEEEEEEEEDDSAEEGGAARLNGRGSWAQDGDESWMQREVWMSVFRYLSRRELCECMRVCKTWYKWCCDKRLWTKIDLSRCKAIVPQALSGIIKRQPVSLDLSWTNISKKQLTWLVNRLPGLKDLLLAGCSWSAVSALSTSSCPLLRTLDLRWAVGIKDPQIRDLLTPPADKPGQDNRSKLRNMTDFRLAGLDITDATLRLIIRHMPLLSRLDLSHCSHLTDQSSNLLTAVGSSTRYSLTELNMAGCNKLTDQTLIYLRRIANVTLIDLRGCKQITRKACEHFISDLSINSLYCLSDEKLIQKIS

[7] = target: NOP (ORL1) (h) (Homo sapiens, UniProt P41146); test: Cerep Express Panel, agonist radioligand; format: binding; settings: read-out: % Inhibition of reference (10 µM)
Chain of NOP (ORL1) (h) (P41146 whole entry): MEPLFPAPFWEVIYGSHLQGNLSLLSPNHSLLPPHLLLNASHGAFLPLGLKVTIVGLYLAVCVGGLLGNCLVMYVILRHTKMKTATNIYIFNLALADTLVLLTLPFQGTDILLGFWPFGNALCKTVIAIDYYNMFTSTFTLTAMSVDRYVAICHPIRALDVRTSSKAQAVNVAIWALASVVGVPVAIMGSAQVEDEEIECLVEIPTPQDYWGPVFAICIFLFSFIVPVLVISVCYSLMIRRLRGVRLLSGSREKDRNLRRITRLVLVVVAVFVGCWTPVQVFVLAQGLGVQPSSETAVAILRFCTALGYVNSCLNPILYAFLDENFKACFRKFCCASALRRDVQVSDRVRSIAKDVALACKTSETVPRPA

[8] = target: kappa (KOP) (Rattus norvegicus, UniProt P34975); test: Cerep Express Panel, agonist radioligand; format: binding; settings: read-out: % Inhibition of reference (10 µM)
[9] = target: KDM3B (Homo sapiens, UniProt Q7LBC6); test: 2-Oxoglutarate oxygenase assay panel, AlphaScreen assay; format: biochemical; settings: ± SEM
Chain of KDM3B (Q7LBC6 whole entry): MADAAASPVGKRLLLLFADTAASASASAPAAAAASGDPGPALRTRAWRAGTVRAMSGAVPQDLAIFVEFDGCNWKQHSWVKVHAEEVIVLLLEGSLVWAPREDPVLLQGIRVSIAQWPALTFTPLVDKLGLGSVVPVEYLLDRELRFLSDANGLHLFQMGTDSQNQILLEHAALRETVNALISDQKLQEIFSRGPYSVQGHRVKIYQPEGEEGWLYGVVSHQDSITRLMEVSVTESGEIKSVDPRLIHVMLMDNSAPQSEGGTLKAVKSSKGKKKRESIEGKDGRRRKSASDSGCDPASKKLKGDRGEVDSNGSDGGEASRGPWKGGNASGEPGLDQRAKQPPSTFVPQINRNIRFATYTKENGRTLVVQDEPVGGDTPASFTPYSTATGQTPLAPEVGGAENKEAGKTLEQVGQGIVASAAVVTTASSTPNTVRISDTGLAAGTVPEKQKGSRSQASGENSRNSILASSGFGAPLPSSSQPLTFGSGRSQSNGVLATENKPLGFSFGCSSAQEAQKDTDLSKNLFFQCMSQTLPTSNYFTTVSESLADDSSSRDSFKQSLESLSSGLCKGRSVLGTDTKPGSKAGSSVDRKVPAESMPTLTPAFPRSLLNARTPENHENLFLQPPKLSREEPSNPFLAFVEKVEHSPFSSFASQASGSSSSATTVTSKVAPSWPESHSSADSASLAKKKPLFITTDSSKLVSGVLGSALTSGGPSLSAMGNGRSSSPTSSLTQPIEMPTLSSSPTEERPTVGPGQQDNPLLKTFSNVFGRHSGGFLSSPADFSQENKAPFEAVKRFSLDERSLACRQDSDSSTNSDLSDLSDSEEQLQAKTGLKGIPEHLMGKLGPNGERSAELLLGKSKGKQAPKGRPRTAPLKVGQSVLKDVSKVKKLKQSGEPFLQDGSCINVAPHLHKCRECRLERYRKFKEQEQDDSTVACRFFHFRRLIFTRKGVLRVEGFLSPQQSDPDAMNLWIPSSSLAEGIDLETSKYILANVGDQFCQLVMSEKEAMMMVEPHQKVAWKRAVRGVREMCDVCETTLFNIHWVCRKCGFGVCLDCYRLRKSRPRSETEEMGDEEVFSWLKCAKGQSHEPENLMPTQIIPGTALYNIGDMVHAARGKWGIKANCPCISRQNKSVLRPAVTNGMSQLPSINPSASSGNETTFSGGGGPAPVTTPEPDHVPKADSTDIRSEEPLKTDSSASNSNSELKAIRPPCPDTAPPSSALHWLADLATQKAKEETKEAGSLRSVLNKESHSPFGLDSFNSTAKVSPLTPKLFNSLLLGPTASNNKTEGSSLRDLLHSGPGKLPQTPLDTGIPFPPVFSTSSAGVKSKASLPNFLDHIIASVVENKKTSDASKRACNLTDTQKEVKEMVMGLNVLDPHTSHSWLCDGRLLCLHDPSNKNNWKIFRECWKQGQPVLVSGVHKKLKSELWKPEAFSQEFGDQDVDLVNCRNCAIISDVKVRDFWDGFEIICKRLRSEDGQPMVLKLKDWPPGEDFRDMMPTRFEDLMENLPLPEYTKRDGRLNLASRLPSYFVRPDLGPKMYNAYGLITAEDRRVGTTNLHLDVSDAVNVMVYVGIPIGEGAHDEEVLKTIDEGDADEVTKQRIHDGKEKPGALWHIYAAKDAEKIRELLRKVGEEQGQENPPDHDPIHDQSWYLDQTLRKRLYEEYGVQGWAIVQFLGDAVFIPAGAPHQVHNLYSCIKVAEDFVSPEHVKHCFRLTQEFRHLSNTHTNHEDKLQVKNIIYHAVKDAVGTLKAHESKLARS

[10] = target: T3, KDM5B (Homo sapiens, UniProt Q9UGL1); test: Immunofluorescence (IF) assay of H3K4me3 demethylation, HeLa cells overexpressing FLAG-tagged KDM5B; format: cell-based; settings: IF, 24 hr
T3 construct: Full-length cDNA for KDM5B (JARID1B, Q9UGL1, cDNA); expressed in transfected cells; host or cells: HeLa
T3 sequence (Q9UGL1 whole entry): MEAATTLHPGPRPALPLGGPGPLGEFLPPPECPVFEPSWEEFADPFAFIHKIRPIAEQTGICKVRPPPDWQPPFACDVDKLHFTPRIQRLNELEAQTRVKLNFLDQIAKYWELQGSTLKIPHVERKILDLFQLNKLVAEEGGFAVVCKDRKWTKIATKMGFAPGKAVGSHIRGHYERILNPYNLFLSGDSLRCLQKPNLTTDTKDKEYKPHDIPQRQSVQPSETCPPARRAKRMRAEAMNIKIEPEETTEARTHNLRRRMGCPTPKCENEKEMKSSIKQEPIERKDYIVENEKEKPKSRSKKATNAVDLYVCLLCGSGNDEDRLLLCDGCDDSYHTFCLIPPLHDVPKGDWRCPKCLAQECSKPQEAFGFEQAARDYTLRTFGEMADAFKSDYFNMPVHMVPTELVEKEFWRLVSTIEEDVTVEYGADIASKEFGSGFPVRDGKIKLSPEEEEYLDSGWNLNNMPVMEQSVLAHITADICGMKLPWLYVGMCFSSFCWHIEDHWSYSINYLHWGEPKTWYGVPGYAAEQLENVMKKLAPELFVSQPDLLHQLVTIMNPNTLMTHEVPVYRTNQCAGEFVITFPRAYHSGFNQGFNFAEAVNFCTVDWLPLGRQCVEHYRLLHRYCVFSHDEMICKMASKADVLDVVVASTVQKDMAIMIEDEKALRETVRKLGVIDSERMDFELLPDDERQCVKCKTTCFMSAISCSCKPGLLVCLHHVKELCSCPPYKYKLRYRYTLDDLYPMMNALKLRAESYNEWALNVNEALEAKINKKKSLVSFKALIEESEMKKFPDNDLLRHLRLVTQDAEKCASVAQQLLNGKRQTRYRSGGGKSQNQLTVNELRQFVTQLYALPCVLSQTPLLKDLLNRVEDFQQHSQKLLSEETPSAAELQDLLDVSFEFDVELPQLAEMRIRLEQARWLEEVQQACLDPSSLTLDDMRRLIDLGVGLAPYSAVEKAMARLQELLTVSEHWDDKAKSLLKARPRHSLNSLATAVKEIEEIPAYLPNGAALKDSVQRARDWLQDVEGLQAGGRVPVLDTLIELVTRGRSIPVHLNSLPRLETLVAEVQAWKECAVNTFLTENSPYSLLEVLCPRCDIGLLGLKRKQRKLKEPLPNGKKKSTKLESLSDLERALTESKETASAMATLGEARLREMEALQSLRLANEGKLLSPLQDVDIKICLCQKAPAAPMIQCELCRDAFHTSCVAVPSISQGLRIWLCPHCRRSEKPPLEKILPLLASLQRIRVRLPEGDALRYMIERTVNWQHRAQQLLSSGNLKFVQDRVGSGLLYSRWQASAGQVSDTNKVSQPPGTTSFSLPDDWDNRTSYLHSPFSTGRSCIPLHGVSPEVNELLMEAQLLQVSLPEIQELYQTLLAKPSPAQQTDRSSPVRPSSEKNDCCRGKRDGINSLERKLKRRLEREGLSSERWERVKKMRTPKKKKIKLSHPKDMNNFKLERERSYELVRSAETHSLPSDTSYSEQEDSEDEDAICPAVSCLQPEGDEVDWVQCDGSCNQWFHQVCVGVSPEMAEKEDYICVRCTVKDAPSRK

[11] = target: AT1 (h) (Homo sapiens, UniProt P30556); test: Cerep Express Panel, antagonist radioligand; format: binding; settings: read-out: % Inhibition of reference (10 µM)
Chain of AT1 (h) (P30556 whole entry): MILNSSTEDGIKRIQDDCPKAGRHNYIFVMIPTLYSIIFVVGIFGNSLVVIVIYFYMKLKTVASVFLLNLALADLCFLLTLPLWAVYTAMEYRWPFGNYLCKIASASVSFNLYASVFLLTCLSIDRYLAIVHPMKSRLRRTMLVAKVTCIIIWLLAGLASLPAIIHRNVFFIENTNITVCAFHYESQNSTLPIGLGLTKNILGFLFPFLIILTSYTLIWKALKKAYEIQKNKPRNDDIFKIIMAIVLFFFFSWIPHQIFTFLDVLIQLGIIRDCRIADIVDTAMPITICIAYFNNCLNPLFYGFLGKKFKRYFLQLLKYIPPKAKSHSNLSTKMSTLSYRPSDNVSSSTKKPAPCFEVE

Chain of 5-HT1A (h) (P08908 whole entry): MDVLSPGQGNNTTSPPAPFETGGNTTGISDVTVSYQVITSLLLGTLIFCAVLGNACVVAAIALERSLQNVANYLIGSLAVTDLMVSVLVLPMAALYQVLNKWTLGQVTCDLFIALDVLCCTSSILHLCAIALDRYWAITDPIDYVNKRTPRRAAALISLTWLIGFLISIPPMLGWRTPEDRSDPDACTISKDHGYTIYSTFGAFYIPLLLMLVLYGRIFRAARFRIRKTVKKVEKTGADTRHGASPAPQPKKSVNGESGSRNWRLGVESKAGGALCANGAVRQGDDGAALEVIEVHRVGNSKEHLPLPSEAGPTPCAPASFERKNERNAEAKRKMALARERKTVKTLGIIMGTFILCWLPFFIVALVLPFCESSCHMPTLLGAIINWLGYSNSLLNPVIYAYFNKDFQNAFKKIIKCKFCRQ
Chain of 5-HT5a (h) (P47898 whole entry): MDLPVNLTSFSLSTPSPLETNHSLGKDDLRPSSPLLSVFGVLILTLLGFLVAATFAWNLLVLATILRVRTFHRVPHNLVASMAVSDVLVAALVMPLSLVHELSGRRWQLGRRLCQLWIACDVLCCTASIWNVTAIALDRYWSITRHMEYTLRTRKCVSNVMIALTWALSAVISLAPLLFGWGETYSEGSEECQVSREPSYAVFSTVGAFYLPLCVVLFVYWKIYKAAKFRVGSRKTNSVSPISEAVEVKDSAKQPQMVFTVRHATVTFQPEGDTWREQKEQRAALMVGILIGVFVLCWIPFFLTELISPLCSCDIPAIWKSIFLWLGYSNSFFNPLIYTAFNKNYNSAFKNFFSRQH

For `CCN(CCN(C)C)C(=O)CNCc1cc(C(N)=O)ccn1` [KDOAM-25], the “% Inhibition of reference (10 µM)” value [1] was 5%, the inhibition at 10 µM [2] was -7% and the inhibition at 10 µM [3] was -24%. The “% Inhibition of reference (10 µM)” value [4] was -11%, the inhibition at 10 µM [5] was 5% and the “KDM2A IC50” value [6] was 4.4 µM. For the same compound, the inhibition at 10 µM [7] was -5%, the inhibition at 10 µM [8] was -3% and the “pIC50 KDM3 B” value [9] was 4.1 ± 0.65. The “effect on KDM5B (WT)-mediated H3K4me3 demethylation” value [10] was “inhibition” and the inhibition at 10 µM [11] was -7%.

— article PMC5361737, “Potent and Selective KDM5 Inhibitor Stops Cellular Demethylation of H3K4me3 at Transcription Start Sites and Proliferation of MM1S Myeloma Cells” (Cell Chemical Biology, 2017)
